Results published in patent publication US20220193170A1, “Nutraceutical Reduction Prevention and/or Reversion of Multiple Sclerosis” (Therapeutic Solutions International, Inc., priority 2020, published 2022).

Legend:
Treg = conditions: in vivo; cited from earlier work
[1] = test system: CD4+, CD25+, FoxP3+ Treg cells; conditions: responding patients; cited from earlier work
[2] = test system: oxygen-induced retinopathy; conditions: OIR mice; UDCA 50 mg/kg, P7-P17; cited from earlier work
osteoblasts = conditions: in vitro, cited from earlier work
IL-6 production = conditions: cited from earlier work
acute pancreatitis = conditions: AP mice gavaged with TUDCA; cited from earlier work
osteoporosis = conditions: OVX mice, vs PBS treatment group, cited from earlier work
[3] = test system: Experimental autoimmune encephalomyelitis; assay: Experimental autoimmune encephalomyelitis (EAE) clinical score; type: in vivo; conditions: female SJL/J mice, by gavage, alone and/or with Copaxone, observed at days 10, 20 and 30; bar graph
Procedure: (§1) Experimental autoimmune encephalomyelitis was induced in female SJL/J (6-8 weeks old) by injection PLP139-151 peptide (50 μg) emulsified in complete Freund's adjuvant (BD Diagnostics), containing killed Mycobacterium tuberculosis (400 μg/ml) in a volume of (50 μl per area). Animals were randomized to receive by QuadraMune™ by gavage, and/or Copaxone. Mice where observed for symptoms at days 10, 20 and 30.
Clinical scores (0, no symptoms; 1, limp tail; 2, partial paralysis of hind limbs; 3, complete paralysis of hind limbs or partial hind and front limb paralysis; 4, tetraparalysis; 5, moribund; 6, death).
as §1, with “PLP^139-151” for “PLP139-151”, “pterostilbene” for “by QuadraMune™”
as §1, with “sulforaphane” for “by QuadraMune™”, “Mice where observed for symptoms at days 10, 20 and 30.” left out

[4] = serum, not significantly different

## Interferon beta
Treg
  Treg activity after initiation of therapy: renormalization of Treg activity

## glatiramer acetate
[1]
  CD4+, CD25+, FoxP3+ Treg cells in peripheral blood and cerebral spinal fluid: increased levels

## C[C@H](CCC(=O)NCC(=O)O)[C@H]1CC[C@H]2[C@@H]3[C@@H](O)C[C@@H]4C[C@H](O)CC[C@]4(C)[C@H]3CC[C@]12C [GUDCA]
[2]
  extension of neovascular and avascular areas: no changes

## C[C@H](CCC(=O)NCCS(=O)(=O)O)[C@H]1CC[C@H]2[C@@H]3[C@@H](O)C[C@@H]4C[C@H](O)CC[C@]4(C)[C@H]3CC[C@]12C [TUDCA, tauroursodeoxycholic acid]
osteoblasts; 100 nM, 1 μM
  proliferation and viability of osteoblasts and osteoblast differentiation and mineralization: significantly increased
osteoblasts
  detrimental effects of methylprednisolone (methylprednisolone-induced osteoblast apoptosis): neutralized
[2]
  extension of neovascular and avascular areas: no changes
IL-6 production
  Inflammation and IL-6 production triggered by infection with Brucella abortus: reduced
Acute pancreatitis
  expression of farnesoid-x-receptor (FXR) and its target gene FGF15: downregulated
  pancreatic and intestinal barrier function injury: mitigated
osteoporosis; [4]
  CTX level: lower
  PINP level: higher
osteoporosis
  percentage bone volume with respect to total bone volume, bone mineral density, distal femur trabeculae: increased
  trabecular structures in the distal femur (micro-CT and histology): preserved more trabecular structures

## C[S+]([O-])CCCCN=C=S (stereo not drawn) [sulforaphane]
[3]
  EAE Score: reduction in EAE Score

## CC1=CC(=O)C(C(C)C)=CC1=O [thymoquinone]
[3]
  EAE Score: reduction in EAE Score
